The values below are quoted from earlier work in patent publication US20200040275A1, “AVIATION FUEL WITH A RENEWABLE OXYGENATE” (Swift Fuels, LLC, priority 2014, published 2020).

The test system of data set [1] is rat.
For data set [2] the following is noted: SDS data from third-party compliance reports.

Structures are written as SMILES.

On to `CC(C)c1ccc(N)cc1` (single isomer, unassigned) [Cumidine, 4-isopropylaniline], for which the “LD50 (rat, oral)” value in data set [1] was 757 mg/kg. In data set [2], the “OSHA Hazards” value is reported as “Irritant. Causes respiratory”.

With `Cc1cccc(N)c1` [m-Toluidine], the “OSHA Hazards” value in data set [2] is “Toxic. Causes cyanosis”.

Consider `CCOC(C)(C)C` [ETBE, ethyl tert-butyl ether], for which the water solubility was 1.2 g/100 g. The “OSHA Hazards” value in data set [2] is on record as “Irritant”.
